Measurements reported in patent US20220274947A1, “NOVEL HETEROARYL-TRIAZOLE COMPOUNDS AS PESTICIDES” (Bayer Aktiengesellschaft, priority 2019, published 2022).

How the values were obtained:
Format in all cases: in vivo
Ctenocephalides felis [1] = test: Ctenocephalides felis oral test (CTECFE Oral); details: 48 h, read-out: activity (mortality)
Summary of the method: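 About 20 unfed adult cat fleas fed through parafilm on cattle blood containing compound (DMSO concentrate diluted in blood to the desired concentration). Blood held at 37 °C, fleas at room temperature. Mortality (%) scored after 2 days.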

Spodoptera frugiperda = Spodoptera frugiperda spray test; details: in Zea mays, 168 h, read-out: activity (mortality)
Summary of the method: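 Maize leaf sections were sprayed with compound formulated in acetone/DMF and diluted in water containing 1000 ppm emulsifier. Dried leaves were infested with fall armyworm larvae, and percent mortality was scored after 7 days.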

Ctenocephalides felis [2] = test: Ctenocephalides felis in-vitro contact test, adult cat flea (CTECFE Cont); details: application rate 5 μg/cm^2 (=500 g/ha), adult cat fleas, after 48 hours, read-out: activity (efficacy: 100% means all fleas are dead or moribund)
Summary of the method: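 Acetone solutions coated on glass tube inner walls (900 ppm giving 5 μg/cm^2), then 5-10 adult fleas added and held 48 h at room temperature. Fleas unable to escape a 45-50° C. heating plate within 5 min scored dead or moribund; efficacy = % dead/moribund.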

Diabrotica balteata = Diabrotica balteata spray test; details: 168 h, wheat seeds, larvae, after 7 days, read-out: activity (efficacy: 100% means all seedlings have grown up like in the untreated, uninfected control); for pest or weed control at 160 µg/disc, 500 g/ha: application rate 500 g/ha (=160 μg/well); for pest or weed control at 32 µg/disc, 100 g/ha: application rate 100 g/ha (=32 μg/well)
Summary of the method: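 Wheat seedlings, germinated 1 day on agar, were sprayed with compound in acetone/DMF diluted in water containing emulsifier, then infested with 10-20 Diabrotica balteata larvae. After 7 days efficacy in % was scored: 100% means seedlings grew like the untreated, uninfected control; 0% means none grew.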

Rhipicephalus microplus [3] = test: Rhipicephalus (Boophilus) microplus injection test (BOOPMI Inj); details: 168 h, injection into adult engorged female ticks, egg deposition after 7 days, read-out: activity (efficacy: 100% means all eggs are infertile); for pest or weed control at 0.004 mg: application rate 4 μg/tick; for pest or weed control at 0.02 mg: application rate 20 μg/tick
Summary of the method: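 Five engorged adult female R. microplus ticks injected into the abdomen with 1 μL of compound diluted in DMSO, then kept in a climate chamber. Fertile egg deposition checked after 7 days; eggs without visible fertility held until hatching at about 42 days. Efficacy: 100% = all eggs infertile, 0% = all fertile.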

[4] = test system: Aedes aegypti strain MONHEIM; test: Aedes aegypti test (AEDSAE surface treatment & contact assay); details: exposure 30 minutes, 24 hours after contact, read-out: efficacy (mortality); for mortality at 4 mg/m2: surface concentration 4 mg/m^2, glazed tile; for mortality at 20 mg/m2: surface concentration 20 mg/m^2, glazed tile
Summary of the method: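 Compound dissolved in acetone (2 mg/ml) with 2000 ppm rapeseed oil methyl ester, pipetted onto glazed tile and dried. Adult mosquitoes exposed on the surface for 30 min; percent mortality scored 24 h after contact.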

Rhipicephalus sanguineus = Rhipicephalus sanguineus in-vitro contact test, adult brown dog ticks (RHIPSA Cont); details: 48 h, after 48 hours, read-out: activity (efficacy: 100% means all ticks are dead or moribund); for pest or weed control at 5 µg/cm2, 500 g/ha: application rate 5 μg/cm^2 (=500 g/ha); for pest or weed control at 1 µg/cm2, 100 g/ha: application rate 1 μg/cm^2 (=100 g/ha)
Summary of the method: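 Compound in acetone (9 mg/mL stock, diluted to test concentration) is coated onto inner walls of glass tubes by rotation for 2 h at 30 rpm. Efficacy is read after 48 h: ticks are tapped down and held on a 45-50° C plate for at most 5 min, and immotile or uncoordinated ones that fail to climb away count as dead or moribund.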

[5] = test system: Culex quinquefasciatus strain P00; test: Culex quinquefasciatus test (CULXFA surface treatment & contact assay); details: surface concentration 20 mg/m^2, glazed tile, exposure 30 minutes, 24 hours after contact, read-out: efficacy (mortality)
Description: Culex quinquefasciatus Test (CULXFA Surface Treatment & Contact Assay) Solvent: Aceton+2000 ppm rapeseed oil methyl ester (RME)
(§1) In order to produce a sufficient, active ingredient containing solution it is necessary to solve the test compound in the solvent-mix (acetone at 2 mg/ml/RME 2 000 ppm). This solution is pipetted onto a glazed tile and after evaporation of the acetone, adult mosquitoes of the species Culex quinquefasciatus strain P00 are placed onto the dried surface. The exposure time is 30 minutes. Mortality in percent (%) is determined 24 hours after contact of the insects to the treated surface. 100% mortality means that all tested insects are dead, whereas 0% means that no insect died.

Rhipicephalus microplus [6] = test: Rhipicephalus (Boophilus) microplus in-vitro contact test, larval cattle tick, strain Parkhurst (BOOPMI Cont); details: application rate 5 μg/cm^2 (=500 g/ha), tick larvae, after 48 hours, read-out: activity (efficacy: 100% means all larvae are dead or moribund)
Summary of the method: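 Acetone solutions dried onto glass tube walls (900 ppm giving 5 μg/cm^2); 20-50 pyrethroid-resistant Parkhurst larvae added per tube and held 48 h at 27° C., 85% relative humidity. Efficacy scored by negative geotaxis as % dead or moribund larvae.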

Myzus persicae = Myzus persicae spray test; details: in Brassica rapa, foliar, 120 h; for mortality at 500 g/ha: read-out: activity (mortality), application rate 500 g/ha, spray, Chinese cabbage leaf disks, after 5 days
Description: Myzus persicae—Spray Test Solvent: 78.0 parts by weight acetone • 1.5 parts by weight dimethylformamide Emulsifier: alkylarylpolyglycol ether To produce a suitable preparation of active compound, 1 part by weight of active compound is mixed with the stated amount of solvents and is diluted with water, containing an emulsifier concentration of 1000 ppm, to the desired concentration. Further test concentrations are prepared by dilution with emulsifier containing water.
Chinese cabbage (Brassica pekinensis) leaf disks infected with all instars of the green peach aphid (Myzus persicae), are sprayed with a preparation of the active ingredient of the desired concentration.
After 5 days mortality in % is determined. 100% means all aphids have been killed and 0% means none of the aphids have been killed.

Nezara viridula = Nezara viridula spray test; details: in Hordeum vulgare, 96 h, application rate 500 g/ha, barley plants, larvae, after 4 days
Summary of the method: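 Barley plants infested with N. viridula larvae were sprayed with compound in acetone/DMF diluted with water containing 1000 ppm alkylarylpolyglycol ether emulsifier. Mortality (%) was scored after 4 days; 100% means all bugs killed, 0% none.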

[7] = test system: Musca domestica strain WHO—N; test: Musca domestica test (MUSCDO surface treatment & contact assay); details: surface concentration 20 mg/m^2, glazed tile, exposure 30 minutes, 24 hours after contact, read-out: efficacy (mortality)
Summary of the method: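 Compound dissolved in acetone (2 mg/ml) with 2000 ppm rapeseed oil methyl ester and pipetted onto glazed tile; after acetone evaporation, adult flies exposed to dried surface for 30 minutes. Mortality (%) scored 24 hours after contact.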

[8] = test system: Anopheles funestus strain FUMOZ-R; test: Anopheles funestus test (ANPHFU surface treatment & contact assay); details: exposure 30 minutes, 24 hours after contact, read-out: efficacy (mortality); for mortality at 4 mg/m2: surface concentration 4 mg/m^2, glazed tile; for mortality at 20 mg/m2: surface concentration 20 mg/m^2, glazed tile
Description: Anopheles funestus Test (ANPHFU Surface Treatment & Contact Assay) Solvent: Aceton+2000 ppm rapeseed oil methyl ester (RME)
as §1, with “2000” for “2 000”, “Anopheles funestus” for “Culex quinquefasciatus”, “FUMOZ-R (Hunt et al., Med. Vet. Entomol. 2005 September; 19(3): 271-275)” for “P00”

SMILES | mortality at 100 ppm (Ctenocephalides felis [1]) | mortality at 100 g/ha (Spodoptera frugiperda) | mortality at 500 g/ha (Spodoptera frugiperda) | pest or weed control at 5 µg/cm2 (Ctenocephalides felis [2]) | pest or weed control at 160 µg/disc, 500 g/ha (Diabrotica balteata) | pest or weed control at 0.004 mg (Rhipicephalus microplus [3]) | pest or weed control at 0.02 mg (Rhipicephalus microplus [3]) | mortality at 4 mg/m2 [4] | mortality at 20 mg/m2 [4] | pest or weed control at 5 µg/cm2, 500 g/ha (Rhipicephalus sanguineus) | mortality at 20 mg/m2 [5] | pest or weed control at 5 µg/cm2 (Rhipicephalus microplus [6]) | mortality at 100 g/ha (Myzus persicae; read-out: activity (mortality), application rate 100 g/ha, spray, Chinese cabbage leaf disks, after 5 days) | mortality at 500 g/ha (Myzus persicae) | pest or weed control at 32 µg/disc, 100 g/ha (Diabrotica balteata) | mortality at 500 g/ha (Nezara viridula) | pest or weed control at 1 µg/cm2, 100 g/ha (Rhipicephalus sanguineus) | mortality at 20 mg/m2 [7] | mortality at 4 mg/m2 [8] | mortality at 20 mg/m2 [8]
C[C@H](NC(=O)c1cc(Cl)cc(C(F)(F)F)c1)c1ncnn1-c1cnc(C#N)cn1 [II-1] | 100% | 100% | 100% | 90% | 100% | 100% | 100% | 80 to 100% | 80 to 100% | 80% | 80 to 100% | 90% | – | – | – | – | – | – | – | –
CC(C)C(=O)Nc1ccc(-n2ncnc2[C@H](C)NC(=O)c2cc(Cl)cc(C(F)(F)F)c2)nc1 [II-2, 3-chloro-N-[(1S)-1-{1-[5-(isobutyrylamino)pyridin-2-yl]-1H-1,2,4-triazol-5-yl}ethyl]-5-(trifluoromethyl)benzamide] | 100% | – | – | 90% | 100% | 100% | 100% | – | – | – | 80 to 100% | 100% | 100% | 90% | 100% | 90% | – | – | – | –
C[C@H](NC(=O)c1cccc(C(F)(F)F)n1)c1ncnn1-c1ccc(C#N)cn1 [II-4] | – | 100% | 100% | – | 100% | – | 100% | – | 80 to 100% | 100% | 80 to 100% | – | – | – | 80% | – | 100% | 80 to 100% | 80 to 100% | 80 to 100%
C[C@H](NC(=O)c1ccc(Cl)c(C(F)(F)F)c1)c1ncnn1-c1ccc(C#N)cn1 [II-10] | 100% | 100% | 100% | – | 100% | 100% | 100% | – | – | 100% | – | 100% | – | – | 100% | – | 80% | – | 80 to 100% | 80 to 100%
C[C@H](NC(=O)c1cc(Cl)cc(I)c1)c1ncnn1-c1ccc(C#N)cn1 [II-23] | – | 100% | 100% | 80% | 100% | 100% | 100% | – | 80 to 100% | – | – | 100% | – | – | 100% | – | – | 80 to 100% | – | 80 to 100%
CC(C)N(C)C(=O)c1ccc(-n2ncnc2[C@H](C)NC(=O)c2cc(Cl)cc(C(F)(F)F)c2)nc1 [II-26] | – | 83% | 100% | 100% | – | 100% | 100% | – | 80 to 100% | 80% | – | 100% | – | 100% | – | – | 100% | – | – | 80 to 100%
C[C@H](NC(=O)c1cc(Cl)cc(C(F)(F)F)c1)c1ncnn1-c1cc(-n2ccc(C(F)(F)F)n2)ccn1 [II-42] | – | 100% | 100% | – | 100% | 80% | 0% | – | – | – | 80 to 100% | 90% | – | – | 100% | – | – | – | – | 80 to 100%
Cc1nc([C@H](C)NC(=O)c2cccc(C(F)(F)F)n2)n(-c2ccc(C#N)cn2)n1 [II-48] | 90% | – | – | – | – | 100% | 100% | 80 to 100% | 80 to 100% | 100% | – | 100% | – | – | 100% | – | 100% | – | 80 to 100% | 80 to 100%
C[C@H](NC(=O)c1cc(Cl)cc(OC(F)(F)F)c1)c1ncnn1-c1ncc(OC(F)F)cn1 [II- 30] | – | – | – | – | – | – | – | – | – | – | 80 to 100% | – | – | – | – | – | – | – | – | –
